Converted amounts (≈) assume the structure as drawn. Read-outs that look alike come from different tables or passages of the source.
Columns and labels:
[1] = Partition coefficient Log (D), 1-octanol / pH 7.4 buffer; type: physicochemical; conditions: water-saturated 1-octanol / pH 7.4 buffer, room temperature
Method: The partition coefficient, Log (D), between water-saturated 1-octanol and pH 7.4 buffer was determined for the test compounds. The buffer was prepared as described in section 2. A 12 μl aliquot of a 10 mM stock solution in DMSO was introduced to a vial containing 0.60 mL of octanol and 0.60 mL of buffer at room temperature. Testosterone was also added to a final concentration of 100 μM as an internal control. The solution was vortexed for 60 minutes and centrifuged at 10,000 rpm for 10 minutes. The organic and aqueous layers were removed. Serial dilutions of the organic layer were made with 50% methanol except for the initial dilution, which was made in 100% methanol. Serial dilutions of the aqueous layer were made in the pH 7.4 buffer. The diluted samples were then assayed by LC/MS for the compound as well as for testosterone. The Log of the ratio of peak area responses was calculated to obtain the Log (D). Typical Log D values for testosterone are from 3.0-3.3.

[2] = test system: Caco-2 monolayers; experiment: Bi-directional permeability, CACO-2; type: in vitro ADME; conditions: for Papp B-A / Papp A-B Ratio: Caco-2 efflux ratio; for Absorption Potential: classification from Papp(A-to-B)
Method: (§1) Caco-2 monolayers were grown to confluence on collagen-coated, microporous, polycarbonate membranes in 12-well Costar Transwell plates. Details of the plates and their certification are shown below. The permeability assay buffer was Hank's Balanced Salt Solution containing 10 mM HEPES and 15 mM glucose at a pH of 7.0±0.2. The dosing solution concentration was 10 μM in assay buffer. At each time point, 1 and 2 hours, a 200-μL aliquot was taken from the receiver chamber and replaced with fresh assay buffer. Cells were dosed on the apical side (A-to-B) or basolateral side (B-to-A) and incubated at 37° C. with 5% CO2 and 90% relative humidity. Each determination was performed in duplicate. The important experimental parameters are outlined below. Permeability through a cell-free (blank) membrane was studied to determine non-specific binding and free diffusion of the compound through the device. Lucifer yellow flux was also measured for each monolayer after being subjected to the test compounds to ensure no damage was inflicted to the cell monolayers during the flux period.
(§2) All samples were assayed by LC/MS using electrospray ionization. Typical LC/MS conditions are as follows:
(§3) dCr/dt is the cumulative concentration in the receiver compartment versus time in M s^−1.
(§4) Vr is the volume of the receiver compartment in cm^3.
(§5) Vd is the volume of the donor compartment in cm^3.
(§6) A is the area of the cell monolayer (1.13 cm^2 for 12-well Transwell).
(§7) C0 is the concentration of the dosing solution in M.
(§8) Cr^final is the cumulative receiver concentration in M at the end of the incubation period.
(§9) Cd^final is the concentration of the donor in M at the end of the incubation period.

[3] = Bi-directional permeability, CACO-2; type: in vitro ADME; conditions: for efflux ratio at 2 h, 10 μM: Caco-2, pH 7
Method: as §1, §2, §3, §4, §5, §6, §7, §8, §9

[4] = Determination of water solubility (de-ionized water, LC/MS); conditions: kinetic from dmso stock
Method: Aqueous solutions are prepared as follows in triplicate: 50 μl of a 10,000 ppm solution (2,000 μg of solid dissolved in 200 μl of methanol) of the substrate in methanol or DMSO is added to 1 mL of de-ionized water in a 2 dram or smaller vial with magnetic stirring. Stirring is continued overnight at ambient temperature. The slurry is taken up into a syringe with a luer tip. The contents are passed through a new 13 mm 0.2 ρM Acrodisc filter (tuffryn or glass fiber) into an autosampler bottle. For preparation of calibration standard solutions: dilutions of the 10,000 ppm solution were prepared at 10, 5, 1, 0.5, and 0.2 ppm. […] For more soluble materials, dilution of the samples into this range is preferable to increasing the calibration range because the non-linearity of the response results in less useful calibration curves. However a shift in the range of calibration standards is required for very insoluble compounds.
Chromatography of the samples was then preformed. For most diacylhydrazines the following conditions were adequate for the measurement. Other columns and gradients may be substituted as appropriate.
Analysis of the test samples is conducted as follows: Each solubility replicate is analyzed in duplicate. […] Standard curves are obtained from duplicate injections of the standards. The concentration of the substrate is determined by calculation from the equation relating concentration and response.

[5] = classification from Papp(B-to-A) and ratio
[6] = Caco-2, pH 7, Percent Recovery Blank
[7] = Caco-2, pH 7, cell-free (blank) membrane, 10 μM, read-out: Papp Blank
[8] = human, Caco-2, pH 7, Caco-2, 10 μM, replicate 2, read-out: Papp, B-to-A Rep. 2
[9] = human, Caco-2, pH 7, Papp, A-to-B Rep. 1
[10] = human, Caco-2, pH 7, Papp, B-to-A Avg
[11] = human, Caco-2, pH 7, Papp, B-to-A Rep. 1
[12] = human, Caco-2, pH 7, Percent Recovery A-to-B
[13] = human, Caco-2, pH 7, Percent Recovery B-to-A
[14] = human, Caco-2, pH 7, Papp, A-to-B Avg
[15] = human, Caco-2, pH 7, Papp, A-to-B Rep. 2
[16] = human, Caco-2, pH 7, Papp, B-to-A Rep. 2

COc1cnccc1C(=O)N(NC(=O)c1cccc(O)c1C)C(C)(C)C [RG-115595]
Log(D) Octanol/pH 7.4 [1]: 2.1
Papp Blank ([2]; Caco-2): 33.2 10^−6 cm/s
Papp, A-to-B Avg ([2]; Caco-2): 19.2 10^−6 cm/s
Papp, A-to-B Rep. 1 ([2]; Caco-2): 19.6 10^−6 cm/s
Papp, A-to-B Rep. 2 ([2]; Caco-2): 18.9 10^−6 cm/s
Papp, B-to-A Avg ([2]; Caco-2): 30.7 10^−6 cm/s
Papp, B-to-A Rep. 1 ([2]; Caco-2): 29.8 10^−6 cm/s
Papp, B-to-A Rep. 2 ([2]; Caco-2): 31.7 10^−6 cm/s
Significant Efflux ([2]; Caco-2): No
Papp B-A / Papp A-B Ratio [2]: 1.6

COc1cccc(C(=O)NN(C(=O)c2cc(C)cc(C)c2)C(C)(C)C)c1C [RG-102398]
Log(D) Octanol/pH 7.4 [1]: 3.5
Absorption Potential [2]: High (Papp(A-to-B) ≧ 1.0 × 10^−6 cm/s High)
Significant Efflux [2, 5]: No
recovery at 2 h, 10 μM [3, 6]: 94%
Papp at 2 h, 10 µM [3, 7]: 34.7 ×10⁻⁶ cm/s
efflux ratio at 2 h, 10 μM ([3]; human): 1
Papp A→B at 2 h, 10 µM ([3]; human, Caco-2, pH 7, Caco-2, 10 μM, average of 2 replicates, read-out: Papp, A-to-B Avg): 26.9 ×10⁻⁶ cm/s
Papp A→B at 2 h, 10 µM ([3]; human, Caco-2, pH 7, Caco-2, 10 μM, replicate 2, read-out: Papp, A-to-B Rep. 2): 26.8 ×10⁻⁶ cm/s
Papp B→A at 2 h, 10 µM [3, 8]: 28.2 ×10⁻⁶ cm/s
Papp A→B at 2 h, 10 µM [3, 9]: 27 ×10⁻⁶ cm/s
Papp B→A at 2 h, 10 µM [3, 10]: 27.1 ×10⁻⁶ cm/s
Papp B→A at 2 h, 10 µM [3, 11]: 25.9 ×10⁻⁶ cm/s
recovery at 2 h, 10 μM [3, 12]: 85%
recovery at 2 h, 10 μM [3, 13]: 90%

COc1ccc(C(=O)N(NC(=O)c2ccc3c(c2C)OCCO3)C(C)(C)C)c(OC)n1 [RG-115517, 2,6-dimethoxy-nicotinic acid N-tert-butyl-N′-(5-methyl-2,3-dihydro-benzo[1,4]dioxine-6-carbonyl)-hydrazide]
Log(D) Octanol/pH 7.4 [1]: 2.9
solubility kinetic [4]: 36.7 µM (≈ 15.8 µg/mL)
Significant Efflux ([2]; Caco-2): No
Papp at 2 h, 10 µM ([3]; Caco-2, pH 7, Papp Blank): 31.6 ×10⁻⁶ cm/s
recovery at 2 h, 10 μM [3, 6]: 96%
efflux ratio at 2 h, 10 μM ([3]; human): 0.9
Papp A→B at 2 h, 10 µM [3, 14]: 28.8 ×10⁻⁶ cm/s
Papp A→B at 2 h, 10 µM [3, 9]: 28.4 ×10⁻⁶ cm/s
Papp A→B at 2 h, 10 µM [3, 15]: 29.3 ×10⁻⁶ cm/s
Papp B→A at 2 h, 10 µM [3, 10]: 26.4 ×10⁻⁶ cm/s
Papp B→A at 2 h, 10 µM [3, 11]: 25.2 ×10⁻⁶ cm/s
Papp B→A at 2 h, 10 µM [3, 16]: 27.6 ×10⁻⁶ cm/s
recovery at 2 h, 10 μM [3, 12]: 91%
recovery at 2 h, 10 μM [3, 13]: 95%

CCc1ccc(C(=O)NN(C(=O)c2cc(C)cc(C)c2)C(C)(C)C)c(F)c1 [RG-101523, 3,5-Dimethyl-benzoic acid N-tert-butyl-N′-(4-ethyl-2-fluoro-benzoyl)-hydrazide]
Log(D) Octanol/pH 7.4 [1]: 2.9
solubility kinetic [4]: 13.4 µM (≈ 4.96 µg/mL)
Significant Efflux ([2]; Caco-2): No
Papp at 2 h, 10 µM ([3]; Caco-2, pH 7, Papp Blank): 29.4 ×10⁻⁶ cm/s
recovery at 2 h, 10 μM [3, 6]: 95%
efflux ratio at 2 h, 10 μM ([3]; human): 1
Papp A→B at 2 h, 10 µM [3, 14]: 25.4 ×10⁻⁶ cm/s
Papp A→B at 2 h, 10 µM [3, 9]: 24.2 ×10⁻⁶ cm/s
Papp A→B at 2 h, 10 µM [3, 15]: 26.6 ×10⁻⁶ cm/s
Papp B→A at 2 h, 10 µM [3, 10]: 24.5 ×10⁻⁶ cm/s
Papp B→A at 2 h, 10 µM [3, 11]: 23.6 ×10⁻⁶ cm/s
Papp B→A at 2 h, 10 µM [3, 16]: 25.4 ×10⁻⁶ cm/s
recovery at 2 h, 10 μM [3, 12]: 95%
recovery at 2 h, 10 μM [3, 13]: 88%

CC(=O)c1ccc(C(=O)NN(C(=O)c2cc(C(=O)O)cc(C(=O)O)c2)C(C)(C)C)cc1 [RG-100150]
Log(D) Octanol/pH 7.4 [1]: −2.1
Papp Blank ([2]; Caco-2): 36.9 10^−6 cm/s
Papp, A-to-B Avg ([2]; Caco-2): 0.18 10^−6 cm/s
Papp, A-to-B Rep. 1 ([2]; Caco-2): 0.19 10^−6 cm/s
Papp, A-to-B Rep. 2 ([2]; Caco-2): 0.18 10^−6 cm/s
Papp, B-to-A Avg ([2]; Caco-2): 0.33 10^−6 cm/s
Papp, B-to-A Rep. 1 ([2]; Caco-2): 0.33 10^−6 cm/s
Papp, B-to-A Rep. 2 ([2]; Caco-2): 0.34 10^−6 cm/s
Significant Efflux ([2]; Caco-2): No

COc1cc(C(=O)N(NC(=O)c2ccc3c(c2C)OCCO3)C(C)(C)C)cc(OC)c1C [RG-115637, 5-Methyl-2,3-dihydro-benzo[1,4]dioxine-6-carboxylic acid N′-tert-butyl-N′-(3,5-dimethoxy-4-methyl-benzoyl)-hydrazide]
solubility kinetic [4]: 13.7 µM (≈ 6.06 µg/mL)

CCc1c(C(=O)NN(C(=O)c2ccc(F)c(C(F)(F)F)c2)C(C)(C)C)ccc2c1OCCO2 [RG-115280]
Log(D) Octanol/pH 7.4 [1]: 3.9
Papp Blank ([2]; Caco-2): 1.88 10^−6 cm/s
Papp, A-to-B Avg ([2]; Caco-2): 1.27 10^−6 cm/s
Papp, A-to-B Rep. 1 ([2]; Caco-2): 1.24 10^−6 cm/s
Papp, A-to-B Rep. 2 ([2]; Caco-2): 1.30 10^−6 cm/s
Papp, B-to-A Avg ([2]; Caco-2): 1.49 10^−6 cm/s
Papp, B-to-A Rep. 1 ([2]; Caco-2): 1.50 10^−6 cm/s
Papp, B-to-A Rep. 2 ([2]; Caco-2): 1.48 10^−6 cm/s
Significant Efflux ([2]; Caco-2): No
Papp B-A / Papp A-B Ratio [2]: 1.2

COc1cc(C(=O)N(NC(=O)c2ccc3c(c2C)OCCO3)C(C)(C)C)cc(OC)c1O [RG-115009, 4-Hydroxy-3,5-dimethoxy-benzoic acid N-tert-butyl-N′-(5-methyl-2,3-dihydro-benzo[1,4]dioxine-6-carbonyl)-hydrazide]
solubility kinetic [4]: 30.4 µM (≈ 13.5 µg/mL)

CCCC(N(NC(=O)c1cccc(OC)c1C)C(=O)c1cc(C)cc(C)c1)C(C)(C)C (stereo not shown) [RG-115823]
Log(D) Octanol/pH 7.4 [1]: 3.3
Papp Blank ([2]; Caco-2): 24.2 10^−6 cm/s
Papp, A-to-B Avg ([2]; Caco-2): 17.6 10^−6 cm/s
Papp, A-to-B Rep. 1 ([2]; Caco-2): 17.4 10^−6 cm/s
Papp, A-to-B Rep. 2 ([2]; Caco-2): 17.8 10^−6 cm/s
Papp, B-to-A Avg ([2]; Caco-2): 17.1 10^−6 cm/s
Papp, B-to-A Rep. 1 ([2]; Caco-2): 18.8 10^−6 cm/s
Papp, B-to-A Rep. 2 ([2]; Caco-2): 15.4 10^−6 cm/s
Significant Efflux ([2]; Caco-2): No
Papp B-A / Papp A-B Ratio [2]: 1.0

Cc1c(C(=O)NN(C(=O)c2cc(F)c(F)c(F)c2)C(C)(C)C)ccc2c1CCCO2 [RG-115575, 3,4,5-Trifluoro-benzoic acid N-tert-butyl-N′-(5-methyl-chroman-6-carbonyl)-hydrazide]
solubility kinetic [4]: 21.6 µM (≈ 9.08 µg/mL)

CCc1ccc(C(=O)NN(C(=O)c2cc(C)cc(C)c2)C(C)(C)C)cc1 [RG-102125]
Log(D) Octanol/pH 7.4 [1]: 3.2
Absorption Potential [2]: High (Papp(A-to-B) ≧ 1.0 × 10^−6 cm/s High)
Significant Efflux [2, 5]: No
recovery at 2 h, 10 μM [3, 6]: 62%
Papp at 2 h, 10 µM [3, 7]: 21.9 ×10⁻⁶ cm/s
Papp B→A at 2 h, 10 µM ([3]; human, Caco-2, pH 7, Caco-2, 10 μM, average of 2 replicates, read-out: Papp, B-to-A Avg): 20.2 ×10⁻⁶ cm/s
Papp A→B at 2 h, 10 µM ([3]; human, Caco-2, pH 7, Caco-2, 10 μM, replicate 1, read-out: Papp, A-to-B Rep. 1): 25.7 ×10⁻⁶ cm/s
Papp B→A at 2 h, 10 µM ([3]; human, Caco-2, pH 7, Caco-2, 10 μM, replicate 1, read-out: Papp, B-to-A Rep. 1): 20.7 ×10⁻⁶ cm/s
Papp B→A at 2 h, 10 µM [3, 8]: 19.7 ×10⁻⁶ cm/s
Papp A→B at 2 h, 10 µM [3, 14]: 26 ×10⁻⁶ cm/s
Papp A→B at 2 h, 10 µM [3, 15]: 26.3 ×10⁻⁶ cm/s
recovery at 2 h, 10 μM [3, 12]: 84%
recovery at 2 h, 10 μM [3, 13]: 63%

Reference: patent US9102648B1, “Bioavailable diacylhydrazine ligands for modulating the expression of exogenous genes via an ecdysone receptor complex” (Intrexon Corporation, priority 2003, dated 2015)
